Patent publication US8741856B2, “Avermectins and milbemycins for the treatment, prevention or amelioration of flavivirus infections” (priority 2009, dated 2014)
Values joined by “and” are separate entries in the source; they are usually repeats but may differ in a detail not shown here. Equal values may be shown once. Read-outs that look alike come from different tables or passages of the source.

Columns and labels:
[1] = test system: BHK cells (Hamster normal kidney fibroblast)
[2] = previous studies, Guzzo C A et al. 2002; cited from earlier work
Vaccinia Virus (VV) = format: cell-based; conditions: read-out: concentration required to reduce the plaque number by 50%, VV
[3] = test system: MDBK (Bovine normal kidney) cells
[4] = test system: Respiratory Syncytial Virus (RSV); format: cell-based; conditions: read-out: concentration required to reduce the plaque number by 50%, RSV
[5] = test system: Coxsackievirus B2 (CVB-2); format: cell-based; conditions: read-out: concentration required to reduce the plaque number by 50%, CVB-2
Reovirus-1 (Reo-1) = format: cell-based; conditions: read-out: concentration required to achieve 50% protection from Reovirus-1 induced cytopathogenicity
[6] = test system: Dengue virus (DENV) serotype 2 New Guinea C (NGC) strain; format: cell-based; conditions: read-out: EC50, anti-DENV, virus yield reduction assay
Modoc (MODV) strain M544 = format: cell-based, Modoc virus; conditions: read-out: EC50, anti-MODV, virus yield reduction assay
[7] = test system: Dengue subgenomic replicons; assay: Anti-DENV activity in BHK cells containing Dengue subgenomic replicons; format: cell-based, Dengue virus
[8] = test system: Vesicular Stomatitis Virus (VSV); format: cell-based; conditions: read-out: concentration required to reduce the plaque number by 50%, VSV
Poliovirus 1 (Sb-1) = format: cell-based; conditions: read-out: concentration required to reduce the plaque number by 50%, Sb-1
TBEV strain Oshima 5-10 [9] = format: cell-based, Tick-borne encephalitis virus; conditions: read-out: EC50, TBEV, virus yield assay
[10] = test system: Bovine viral diharrea virus (BVDV); format: cell-based; conditions: read-out: concentration required to achieve 50% protection from BVDV induced cytopathogenicity
JEV strain SA-14 [11] = format: cell-based, Japanese encephalitis virus
JEV strain SA-14 [12] = format: cell-based, Japanese encephalitis virus; conditions: read-out: EC50, JEV, virus yield assay
TBEV strain Oshima 5-10 [13] = format: cell-based, Tick-borne encephalitis virus
Herpesvirus 1 (HSV-1) = format: cell-based; conditions: read-out: concentration required to reduce the plaque number by 50%, HSV-1
[14] = test system: Yellow fever virus (YFV) 17D vaccine strain; format: cell-based; conditions: read-out: EC50, anti-YFV, CPE reduction assay
[15] = test system: VERO-76 (Monkey normal kidney) monolayers
YFV [16] = format: cell-based, Yellow fever virus; conditions: read-out: EC50, anti-YFV, virus yield reduction assay
DENV type 1 = conditions: rhesus monkeys infected with DENV type 1, therapeutic and prophylactic protocols; cited from earlier work
YFV [17] = conditions: rhesus monkey, in vivo; cited from earlier work

ivermectin
concentration required to reduce the viability of BHK monolayers by 50% [1]: 1.5 µM
dose that can be safely employed [2]: up to 10 times the highest FDA-approved dose of 200 μg/kg
EC50 (Vaccinia Virus (VV)): > 6000 nM
concentration required to reduce the viability of MDBK cells by 50% [3]: 11 µM
EC50 [4]: > 6000 nM
EC50 [5]: > 6000 nM
EC50 (Reovirus-1 (Reo-1)): > 1500 nM
EC50 [6]: 710 nM
EC50 (Modoc (MODV) strain M544): 730 nM
anti-DENV activity in replicon cells [7]: possess anti-DENV activity
EC50 [8]: > 6000 nM
EC50 (Poliovirus 1 (Sb-1)): > 6000 nM
EC50 (TBEV strain Oshima 5-10 [9]): 100 to 1000 nM
EC50 [10]: ~1500 nM
EC50 (JEV strain SA-14 [11]; read-out: EC50, JEV, viral titer reduction assay): 300 nM
EC50 (JEV strain SA-14 [11]; read-out: EC50, JEV, viral titration on BHK21 cells): 300 nM
EC50 (JEV strain SA-14 [12]): 100 to 1000 nM
EC50 (TBEV strain Oshima 5-10 [13]; read-out: EC50, TBEV, viral titer reduction assay): 200 nM
EC50 (TBEV strain Oshima 5-10 [13]; read-out: EC50, TBEV, viral titration on BHK21 cells): 200 nM
EC50 (Herpesvirus 1 (HSV-1)): > 6000 nM
EC50 [14]: 7.4 nM and 10.3 nM
concentration required to reduce the viability of VERO 76 monolayers by 50% [15]: 6 µM
EC50 (YFV [16]): 4.9 nM

NC(=O)c1ncn([C@@H]2O[C@H](CO)[C@@H](O)[C@H]2O)n1 [ribavirin, 1-beta-D-ribofuranosyl-1,2,4-triazole-3-carboxamide]
effect on viremia or survival (DENV type 1): no effect on viremia or survival was observed
effect on viremia or survival (YFV [17]): no effect on viremia or survival was observed
